Measured values taken from ChEMBL document CHEMBL1201861, “Genomics of Drug Sensitity in Cancer screening data, Wellcome Trust Sanger Institute”.
pIC50: −log10 of the molar value.

How the values were obtained:
SW-620 = experiment: cells; format: functional, cell-based; details: Homo sapiens;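 note: growth inhibition of human SW-620 cells, measured by a cell viability assay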
Description: SANGER: Inhibition of human SW620 cell growth in a cell viability assay.

HCC1569 = experiment: cells; format: functional, cell-based; details: Homo sapiens;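 note: growth inhibition of human HCC1569 cells, read out with a cell viability assay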
Description: SANGER: Inhibition of human HCC1569 cell growth in a cell viability assay.

5637 = experiment: cells; format: functional, cell-based; details: Homo sapiens
Description: SANGER: Inhibition of human 5637 cell growth in a cell viability assay.

CAL-85-1 = experiment: cells; format: functional, cell-based; details: Homo sapiens;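 note: growth inhibition of human CAL-85-1 cells, read out with a cell viability assay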
Description: SANGER: Inhibition of human CAL-85-1 cell growth in a cell viability assay.

NCI-H661 = experiment: cells; format: functional, cell-based; details: Homo sapiens;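 note: cell viability assay read-out, IC50 being the concentration that inhibits growth of the cells by half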
Description: SANGER: Inhibition of human NCI-H661 cell growth in a cell viability assay.

DMS-273 = experiment: cells; format: functional, cell-based; details: Homo sapiens
Description: SANGER: Inhibition of human DMS-273 cell growth in a cell viability assay.

VM-CUB-1 = experiment: cells; format: functional, cell-based; details: Homo sapiens;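 note: cell viability assay measuring growth inhibition of the human VM-CUB-1 cell line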
Description: SANGER: Inhibition of human VM-CUB-1 cell growth in a cell viability assay.

NB1 = experiment: cells; format: functional, cell-based, Homo sapiens; details: Homo sapiens, NB1;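 note: reduction of NB1 cell proliferation, read out with a viability assay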
Description: SANGER: Inhibition of human NB1 cell growth in a cell viability assay.

786-0 = experiment: cells; format: functional, cell-based; details: Homo sapiens
Description: SANGER: Inhibition of human 786-0 cell growth in a cell viability assay.

U-251 = experiment: cells; format: functional, cell-based; details: Homo sapiens;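 note: growth inhibition of human U-251 cells, read out through a cell viability assay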
Description: SANGER: Inhibition of human U251 cell growth in a cell viability assay.

NCI-H1563 = experiment: cells; format: functional, cell-based; details: Homo sapiens;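 note: growth inhibition of human NCI-H1563 cells, read out with a cell viability assay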
Description: SANGER: Inhibition of human NCI-H1563 cell growth in a cell viability assay.

EFO-21 = experiment: cells; format: functional, cell-based; details: Homo sapiens;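 note: growth inhibition of EFO-21 cells measured with a viability assay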
Description: SANGER: Inhibition of human EFO-21 cell growth in a cell viability assay.

NCI-H2122 = experiment: cells; format: functional, cell-based; details: Homo sapiens;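 note: growth inhibition of the cells, read out with a cell viability assay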
Description: SANGER: Inhibition of human NCI-H2122 cell growth in a cell viability assay.

HLE = experiment: cells; format: functional, cell-based; details: Homo sapiens;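 note: growth inhibition of human HLE cells, read out by a cell viability assay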
Description: SANGER: Inhibition of human HLE cell growth in a cell viability assay.

CAL-12T = experiment: cells; format: functional, cell-based; details: Homo sapiens;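 note: growth inhibition of human CAL-12T cells, read out with a cell viability assay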
Description: SANGER: Inhibition of human CAL-12T cell growth in a cell viability assay.

T47D = experiment: cells; format: functional, cell-based; details: Homo sapiens;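 note: growth inhibition of human T47D cells, measured with a cell viability assay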
Description: SANGER: Inhibition of human T47D cell growth in a cell viability assay.

GAMG = experiment: cells; format: functional, cell-based; details: Homo sapiens;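 note: cell growth inhibition measured by a viability assay in the GAMG human cell line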
Description: SANGER: Inhibition of human GAMG cell growth in a cell viability assay.

NCI-H2452 = experiment: cells; format: functional, cell-based; details: Homo sapiens;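 note: growth inhibition of NCI-H2452 cells, read out with a cell viability assay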
Description: SANGER: Inhibition of human NCI-H2452 cell growth in a cell viability assay.

639-V = experiment: cells; format: functional, cell-based; details: Homo sapiens;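 note: growth inhibition of 639-V cells, read out with a cell viability assay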
Description: SANGER: Inhibition of human 639-V cell growth in a cell viability assay.

MDA-MB-361 = experiment: cells; format: functional, cell-based; details: Homo sapiens
COR-L105 = experiment: cells; format: functional, cell-based; details: Homo sapiens
Description: SANGER: Inhibition of human COR-L105 cell growth in a cell viability assay.

SBC-5 = experiment: cells; format: functional, cell-based; details: Homo sapiens;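 note: cell viability assay read-out, IC50 is the concentration that inhibits growth of the cells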
Description: SANGER: Inhibition of human SBC-5 cell growth in a cell viability assay.

T-24 = experiment: cells; format: functional, cell-based; details: Homo sapiens;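 note: growth inhibition of T-24 cells, read out with a cell viability assay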
Description: SANGER: Inhibition of human T-24 cell growth in a cell viability assay.

LC-1F = experiment: cells; format: functional, cell-based, Homo sapiens; details: Homo sapiens, LC-1F;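 note: growth inhibition of human LC-1F cells, read out with a cell viability assay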
Description: SANGER: Inhibition of human LC-1F cell growth in a cell viability assay.

EVSA-T = experiment: cells; format: functional, cell-based, Homo sapiens; details: Homo sapiens, EVSA-T;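 note: growth inhibition of EVSA-T cells, read out with a cell viability assay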
Description: SANGER: Inhibition of human EVSA-T cell growth in a cell viability assay.

SW756 = experiment: cells; format: functional, cell-based; details: Homo sapiens;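 note: growth inhibition of human SW756 cells, read out with a cell viability assay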
Description: SANGER: Inhibition of human SW756 cell growth in a cell viability assay.

CAMA-1 = experiment: cells; format: functional, cell-based; details: Homo sapiens;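 note: growth inhibition of CAMA-1 cells, read out with a cell viability assay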
Description: SANGER: Inhibition of human CAMA-1 cell growth in a cell viability assay.

Panc1005 = experiment: cells; format: functional, cell-based; details: Homo sapiens;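 note: growth inhibition of human PANC-10-05 cells, measured by a cell viability assay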
Description: SANGER: Inhibition of human PANC-10-05 cell growth in a cell viability assay.

BFTC-905 = experiment: cells; format: functional, cell-based; details: Homo sapiens
Description: SANGER: Inhibition of human BFTC-905 cell growth in a cell viability assay.

Ca9-22 = experiment: cells; format: functional, cell-based; details: Homo sapiens;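 note: growth inhibition of Ca9-22 cells, read out with a cell viability assay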
Description: SANGER: Inhibition of human Ca9-22 cell growth in a cell viability assay.

PA-1 = experiment: cells; format: functional, cell-based; details: Homo sapiens;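 note: IC50 for suppression of PA-1 cell proliferation, determined with a cell viability read-out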
Description: SANGER: Inhibition of human PA-1 cell growth in a cell viability assay.

HuTu80 = experiment: cells; format: functional, cell-based, Homo sapiens, HUTU-80; details: Homo sapiens, HuTu80;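 note: growth inhibition of HuTu80 human cells, determined with a cell viability readout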
Description: SANGER: Inhibition of human HUTU-80 cell growth in a cell viability assay.

NCI-H345 = experiment: cells; format: functional, cell-based, Homo sapiens; details: Homo sapiens, NCI-H345;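 note: growth inhibition of NCI-H345 cells measured with a cell viability assay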
Description: SANGER: Inhibition of human NCI-H345 cell growth in a cell viability assay.

ARH-77 = experiment: cells; format: functional, cell-based, Homo sapiens; details: Homo sapiens, ARH-77;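 note: growth inhibition of ARH-77 cells, read out by a cell viability assay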
Description: SANGER: Inhibition of human ARH-77 cell growth in a cell viability assay.

NCI-H2196 = experiment: cells; format: functional, cell-based, Homo sapiens; details: Homo sapiens, NCI-H2196; read-out: IC50;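 note: cell viability assay used as the readout of growth inhibition in NCI-H2196 cells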
Description: SANGER: Inhibition of human NCI-H2196 cell growth in a cell viability assay.

HCC1419 = experiment: cells; format: functional, cell-based; details: Homo sapiens;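 note: growth inhibition of human HCC1419 cells, read out as cell viability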
Description: SANGER: Inhibition of human HCC1419 cell growth in a cell viability assay.

MC-IXC = experiment: cells; format: functional, cell-based; details: Homo sapiens;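 note: growth inhibition of MC-IXC cells, read out with a cell viability assay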
Description: SANGER: Inhibition of human MC-IXC cell growth in a cell viability assay.

HT-1080 = experiment: cells; format: functional, cell-based; details: Homo sapiens
Description: SANGER: Inhibition of human HT-1080 cell growth in a cell viability assay.

SUP-T1 = experiment: cells; format: functional, cell-based, Homo sapiens; details: Homo sapiens, SUP-T1;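 note: growth inhibition of human SUP-T1 cells, read out as cell viability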
Description: SANGER: Inhibition of human SUP-T1 cell growth in a cell viability assay.

SW1710 = experiment: cells; format: functional, cell-based; details: Homo sapiens;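 note: growth inhibition of SW1710 cells, determined with a cell viability assay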
Description: SANGER: Inhibition of human SW1710 cell growth in a cell viability assay.

C3A = experiment: cells; format: functional, cell-based; details: Homo sapiens;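 note: growth inhibition of C3A human cells, quantified with a cell viability readout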
Description: SANGER: Inhibition of human C3A cell growth in a cell viability assay.

FTC-133 = experiment: cells; format: functional, cell-based; details: Homo sapiens
Daudi = experiment: cells; format: functional, cell-based, Homo sapiens; details: Homo sapiens, Daudi;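 note: growth inhibition of Daudi cells, read out by a viability assay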
Description: SANGER: Inhibition of human Daudi cell growth in a cell viability assay.

NCI-H28 = experiment: cells; format: functional, cell-based; details: Homo sapiens;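 note: growth inhibition of human NCI-H28 cells, read out as cell viability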
Description: SANGER: Inhibition of human NCI-H28 cell growth in a cell viability assay.

KYSE-150 cell line = experiment: cells; format: functional, cell-based; details: Homo sapiens;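 note: growth inhibition of human KYSE-150 cells, read out with a cell viability assay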
Description: SANGER: Inhibition of human KYSE-150 cell growth in a cell viability assay.

SU-DHL-1 = experiment: SANGER: Inhibition of human SU-DHL-1 cell growth in a cell viability assay.; format: functional, cell-based; details: Homo sapiens, SU-DHL-1
SAS = experiment: cells; format: functional, cell-based; details: Homo sapiens;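 note: growth inhibition of SAS cells, read out with a cell viability assay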
Description: SANGER: Inhibition of human SAS cell growth in a cell viability assay.

HuCCT-1 = experiment: cells; format: functional, cell-based, HuCCT1; details: Homo sapiens;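 note: growth inhibition of HuCCT-1 cells, read out by a cell viability assay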
Description: SANGER: Inhibition of human HuCCT1 cell growth in a cell viability assay.

CA46 = experiment: cells; format: functional, cell-based, Homo sapiens; details: Homo sapiens, CA46;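 note: growth inhibition of human CA46 cells, read out by a cell viability assay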
Description: SANGER: Inhibition of human CA46 cell growth in a cell viability assay.

REH = experiment: cells; format: functional, cell-based, Homo sapiens; details: Homo sapiens, REH;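 note: growth inhibition of REH cells determined with a cell viability read-out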
Description: SANGER: Inhibition of human REH cell growth in a cell viability assay.

NCI-H1573 = experiment: cells; format: functional, cell-based; details: Homo sapiens;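 note: growth inhibition of NCI-H1573 cells, read out with a cell viability assay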
Description: SANGER: Inhibition of human NCI-H1573 cell growth in a cell viability assay.

NCI-H889 = experiment: cells; format: functional, cell-based, Homo sapiens; details: Homo sapiens, NCI-H889;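 note: cell growth inhibition of the cell line, read out with a viability assay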
Description: SANGER: Inhibition of human NCI-H889 cell growth in a cell viability assay.

8505C = experiment: cells; format: functional, cell-based; details: Homo sapiens
Description: SANGER: Inhibition of human 8505C cell growth in a cell viability assay.

BL-70 = experiment: SANGER: Inhibition of human BL-70 cell growth in a cell viability assay.; format: functional, cell-based; details: Homo sapiens, BL-70
G-361 = experiment: cells; format: functional, cell-based; details: Homo sapiens
UACC-62 = experiment: cells; format: functional, cell-based; details: Homo sapiens;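 note: growth inhibition of human UACC-62 cells, read out by a cell viability assay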
Description: SANGER: Inhibition of human UACC-62 cell growth in a cell viability assay.

ECC4 = experiment: cells; format: functional, cell-based, Homo sapiens; details: Homo sapiens, ECC4;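 note: growth inhibition of ECC4 cells, read out with a cell viability assay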
Description: SANGER: Inhibition of human ECC4 cell growth in a cell viability assay.

SF-295 = experiment: cells; format: functional, cell-based; details: Homo sapiens;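 note: growth inhibition of SF-295 cells, read out with a cell viability assay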
Description: SANGER: Inhibition of human SF295 cell growth in a cell viability assay.

D-336MG = experiment: cells; format: functional, cell-based, Homo sapiens; details: Homo sapiens, D-336MG
Description: SANGER: Inhibition of human D-336MG cell growth in a cell viability assay.

Measured: pIC50

C/C(=C\c1csc(C)n1)[C@@H]1C[C@@H]2O[C@]2(C)CCC[C@H](C)[C@H](O)[C@@H](C)C(=O)C(C)(C)[C@@H](O)CC(=O)O1 [PATUPILONE]
8.67: BL-70
7.52: NCI-H661 | FTC-133
8.95: Panc1005 | Ca9-22
8.47: C3A
8.21: ARH-77
9.76: PA-1
7.66: NCI-H28
7.51: EVSA-T
9.19: SW-620
9.07: HT-1080
9.66: 639-V
9.35: 8505C
8.79: DMS-273
7.84: NB1
8.01: EFO-21
9.62: CAL-12T
7.61: Daudi
10.30: BFTC-905
9.18: CAL-85-1
7.97: U-251
9.39: NCI-H2122
> 9.90: SW1710
8.72: SF-295
9.04: SBC-5
8.02: COR-L105 | CA46
9.96: 786-0
10.08: HLE
7.78: MDA-MB-361
9.15: G-361
9.30: KYSE-150 cell line
7.69: T-24
8.51: VM-CUB-1 | MC-IXC
9.48: HuTu80
8.75: GAMG | REH
9.20: 5637
7.89: HCC1569 | CAMA-1
8.58: HuCCT-1
8.19: NCI-H1573
not listed: D-336MG
< 7.49: all other assays above

OC[C@H](Cc1ccccc1)Nc1nc(Oc2ccc3c(c2)CCC3)nc2c1ncn2Cc1ccc(-c2ccccc2)cc1
5.02: CAMA-1
5.94: 639-V
5.88: HuTu80
5.30: BFTC-905 | SUP-T1
5.57: NCI-H2122
5.61: CAL-12T
5.38: 5637 | BL-70
5.90: 786-0
5.34: 8505C
5.49: SF-295
5.32: SAS
5.50: SW-620
5.84: SW1710
5.29: HT-1080
5.35: CAL-85-1
5.03: NB1 | KYSE-150 cell line
5.69: G-361
5.25: HLE
not listed: D-336MG
< 4.99: all other assays above

Cc1ccc(-n2nc(C(C)(C)C)cc2NC(=O)Nc2ccc(OCCN3CCOCC3)c3ccccc23)cc1 [DORAMAPIMOD]
5.08: T-24
not listed: NB1 | LC-1F | EVSA-T | NCI-H345 | ARH-77 | NCI-H2196 | SUP-T1 | Daudi | SU-DHL-1 | CA46 | REH | NCI-H889 | BL-70 | ECC4
< 5.00: all other assays above

CC1=C(/C=C/C(C)=C/C=C/C(C)=C/C(=O)O)C(C)(C)CCC1 [TRETINOIN]
6.81: MC-IXC
not listed: NB1 | LC-1F | EVSA-T | NCI-H345 | ARH-77 | NCI-H2196 | SUP-T1 | Daudi | SU-DHL-1 | CA46 | REH | NCI-H889 | BL-70 | ECC4
< 5.00: all other assays above
